From US7323454B2, “Etonogestrel esters” (N.V. Organon, priority 2002, dated 2008)

Assay: Pharmacokinetics of etonogestrel esters in the rabbit after one i.m. injection; plasma etonogestrel by LC-MSMS
Type: in vivo
Description: For the determination of the pharmacokinetic profile of the different etonogestrel-esters after parenteral application, i.m. application in the castrated rabbit model was chosen instead of s.c. Briefly, rabbits were injected once (day 1) with indicated etonogestrel-esters at 20 mg/kg in arachis oil (with a concentration of 40 mg/ml). At day 1, 2, 3, 4, 5, 6, 7, 8, 10, 12, 14, 21, 28, 35, 49, 63, 77, 92, 106, 120 and 133 blood was collected from the ear arteria, in EDTA-containing tubes. EDTA plasma was prepared (1500 g, 15 min) and stored at −20° C. With LC-MSMS the amount of parent compound (etonogestrel) was determined in these samples. The lower limit of this new assay is 0.5 nmol/l, from 0-250 nmol/l a linear curve was obtained with a correlation coefficient of 0,9998.

[1] = one i.m. injection, 20 mg/kg in arachis oil
[2] = one i.m. injection, 20 mg/kg in arachis oil, parent etonogestrel measured

| SMILES | initial peak level of etonogestrel in plasma [2] | time of initial peak level of etonogestrel [1] | other results |
| --- | --- | --- | --- |
| C#C[C@]1(OC(=O)CCCCCCCC)CC[C@H]2[C@@H]3CCC4=CC(=O)CC[C@@H]4[C@H]3C(=C)C[C@@]21CC [Etonogestrel nonanoate] | – | – | duration with serum levels of etonogestrel above 1 nmol/l (in words) [1]: extended duration; initial peak levels of etonogestrel (in words) [1]: lower peak levels |
| C#C[C@]1(OC(=O)CCCCCC)CC[C@H]2[C@@H]3CCC4=CC(=O)CC[C@@H]4[C@H]3C(=C)C[C@@]21CC [Etonogestrel-heptanoate] | 120 nmol/L | – | – |
| C#CC1(OC(=O)CCCCCCCCC)CCC2C3CCC4=CC(=O)CCC4C3C(=C)CC21CC (stereo not shown) [etonogestrel decanoate] | 24 nmol/L | 5 days | – |
| C#C[C@]1(OC(=O)CCCCCCCCCCC)CC[C@H]2[C@@H]3CCC4=CC(=O)CC[C@@H]4[C@H]3C(=C)C[C@@]21CC [etonogestrel dodecanoate] | 9 nmol/L | 8 days | – |
| C#C[C@]1(OC(=O)CCCCCCCCCCCC)CC[C@H]2[C@@H]3CCC4=CC(=O)CC[C@@H]4[C@H]3C(=C)C[C@@]21CC [etonogestrel tridecanoate] | – | – | initial peak levels of etonogestrel (in words) [1]: no initial levels of etonogestrel were observed |
| C#C[C@]1(OC(=O)CCCCCCCCCC)CC[C@H]2[C@@H]3CCC4=CC(=O)CC[C@@H]4[C@H]3C(=C)C[C@@]21CC [etonogestrel undecanoate] | 13 nmol/L | eight | duration of action (etonogestrel level above 1 nmol/l) [1]: more than 92 days |
| C#C[C@]1(O)CC[C@H]2[C@@H]3CCC4=CC(=O)CC[C@@H]4[C@H]3C(=C)C[C@@]21CC [etonogestrel, (17α)-13-ethyl-17-hydroxy-11-methylene-18,19-dinorpregn-4-en-20-yn-3-one] | – | – | initial peak level of etonogestrel in plasma (in vivo, 20 mg/kg): 200 nmol/L; time in which etonogestrel levels declined to below 1 nmol/l (in vivo, 20 mg/kg): 28 days |
